Test results from patent publication US4272541A, “7,8 and 7-8 Substituted 4,5α-epoxymorphinan-6-one compounds, and methods of treating pain and drug dependence with them” (Miles Laboratories, Inc., priority 1979, dated 1981).

Assays:
[1] = Telford et al. 1961; Yeh et al. 1976; cited from earlier work
[2] = system: Anti-Peristaltic Effects Of Morphine; experiment: Charcoal meal test, antagonist test (ability to antagonize the anti-peristaltic effects of morphine); format: in vivo, mice (albino females, CFW strain); settings: for Percent Reversal (S.E.) Of Anti-Peristaltic Effects Of Morphine: morphine 8 mg/kg, naloxone 10 mg/kg = 100%; for antagonist properties: in words, charcoal meal tests
Protocol: (§1) The agonist and antagonist effects of TR-5088, reference compound TR-5128 and prior art compound 17-cyclopropylmethyl-4,5α-epoxy-3-hydroxymorphinan-6-one (TR-5118) were determined in mice by a modified procedure of Rodriguez and Villarreal (report on the 36th Annual Scientific Meeting Committee on the Problems of Drug Dependance, Mar. 10-14, 1974, Mexico City, D.F.).
(§2) Subjects and Procedure for Measuring Gastrointestinal Peristaltic Activity. The mice used were albino females of the CFW strain, weighing between 20 and 25 grams; ten animals per dose were used for each compound tested in each experiment except 20 animals were used in the tests of Compound 5088. Gastrointestinal peristaltic activity was measured using a modification of the charcoal meal method described by Macht and Baba-Gose (1931). Mice were deprived of food 18 hours before the administration of the charcoal meal. […] This meal consisted of an aqueous suspension of 5% powdered tragacanth and 5% animal charcoal and was freshly made for each experiment. The charcoal meal was administered by gastric intubation, 0.25 ml per mouse. The animals were sacrificed by cervical dislocation. After the sacrifice, the whole gastrointestinal tract was rapidly removed and freed of epiploon. Then the entire length of intestine was hung upon a small hook at the level of the pylorus. In order to standardize the tension of the intestine, a 5 g weight was hung at the level of the ileocecal valve. Gastrointestinal peristaltic activity was then determined by measuring the distance the charcoal traveled from the pylorus.
(§3) Drugs. Morphine hydrochloride, naloxone hydrochloride or test compounds were each dissolved in distilled water with their concentrations adjusted so that the volume of injection was 10 ml/kg. Doses are expressed in terms of the salts.
Determination of Ability of Test Compounds to Antagonize the Anti-Peristaltic Effects of Morphine (Antagonist test).
Morphine (8 mg/kg) was given s.c. at time 0, charcoal meal was given p.o. at time 15 min, naloxone or test compound was given s.c. at 30 min, and the animals were sacrificed at time 45 min. Naloxone is the standard of reference and its maximum effect (at 10 mg/kg) to antagonize the antiperistaltic effects of morphine is assigned the value of 100%; test compounds are expressed as % of maximum naloxone antagonism.

writhing = experiment: Acetic acid mouse writhing test (analgesic effects); format: in vivo, mice (male CD-1); settings: for ED50: Mus musculus, sc, 0.25 h, mice, subcutaneous, acetic acid i.p. 15 minutes post drug, Table I, read-out: ED50
Protocol: (A) Analgesic effects upon mice (acetic acid writhing test).
TEST A. ACETIC ACID MOUSE WRITHING TEST
The analgesic effects of test compounds were determined in mice by use of the acetic acid writhing test described by B. J. R. Whittle, Brit. J. Pharmacol., 22:246 (1964). In this test at least three groups of five male CD-1 mice (18-22 g) each were given subcutaneous doses of the test drug dissolved in either distilled water or distilled water acidified with HCl depending on the solubility of the compound. In all cases, 0.4 milliliter of a 0.5% V/V acetic acid in distilled water solution was administered intraperitoneally 15 minutes post drug. The number of writhes in a 20 min. interval beginning 5 minutes after the acetic acid injection were determined and compared with the number of writhes in control groups which had received only acetic acid.
Percent inhibition of writhing was calculated as: [formula]
The ED50 dose, i.e., the dose required to reduce the number of writhes by 50%, was determined graphically from a plot of % inhibition as a probit versus log dose. Confidence limits of 95% were calculated on the basis of those results falling in the range 16-84% inhibition. See Litchfield, J. T. and Wilcoxon, F., J. Pharmacol. Exp. Ther., 96, 99-113, (1949).

morphine effect = experiment: Narcotic antagonist activity, modified rat tail flick test; format: in vivo, rats (male albino Wistar); settings: Rattus norvegicus, ip; rats, test drug i.p. 10 minutes before ED80 dose of morphine s.c.; Table I; read-out: AD50 (the source's name)
Protocol: (B) Narcotic antagonist activity in rats (modified rat tail flick test).
TEST B. EVALUATION OF NARCOTIC ANTAGONIST ACTIVITY
The narcotic antagonist effects of test compounds were determined by a modification of the rat tail flick procedure of Harris and Pierson (J. Pharmacol. Exp. Ther. 143,141 [1964]).
Male albino Wistar rats (100-120 g) were used for this study. A rat's tail is so placed so as to cover a photocell. Heat is applied by a lamp in a reflector with a timer being connected to the lamp and photocell so that the timer goes on when the light is turned on and is turned off when the photocell is uncovered. A rheostat, incorporated into a heating lamp is used to adjust the intensity of the light falling on the tail of the rat such that the rat's control reaction time is from two to four seconds. Animals with a control reaction time outside this range are rejected. The rheostat adjustment is made only if a significant proportion (more than 2 out of every 10 rats) of the reaction times are outside the range of two to four seconds. Groups of five rats were used each time, and two control times were determined at 60 and 30 minutes prior to subcutaneous injection of the drug.
Thirty minutes after the last control run the test drug was given intraperitoneally. This was followed ten minutes later by an ED80 dose of morphine subcutaneously. The animals were retested at 20 minutes after the morphine injection. Control animals were given vehicle and morphine only. The data were calculated as follows: [formula]
The data were plotted on log-probit paper and AD50 values, i.e., the dose required to inhibit the morphine effect by 50% within 95% confidence limits, were determined by the method of Litchfield and Wilcoxon.

Peristalsis = experiment: Charcoal meal test, agonist test (ability of test compound to directly inhibit peristalsis); format: in vivo, mice (albino females, CFW strain); settings: for inhibition at 0.01 mg/kg / inhibition at 0.1 mg/kg / inhibition at 1 mg/kg / inhibition at 10 mg/kg / inhibition at 100 mg/kg: Mus musculus, sc, morphine 8 mg/kg = 100%, read-out: Percent Inhibition of Peristalsis; for inhibition at 0.01 mg/kg: 0.01 mg/kg s.c.; for inhibition at 0.1 mg/kg: 0.1 mg/kg s.c.; for inhibition at 1 mg/kg: 1.0 mg/kg s.c.; for inhibition at 10 mg/kg: 10.0 mg/kg s.c.; for inhibition at 100 mg/kg: 100.0 mg/kg s.c.; for inhibition of peristalsis / constipating side effect: in words, analysis of variance, comparison of compounds
Protocol: as §1, §2, §3
Morphine (8 mg/kg), test compound, or saline control was administered subcutaneously (s.c.), at time 0, the charcoal meal was administered by mouth (p.o.) at time 15 min, water (10 ml/kg) was administered s.c. at time 30 min, and the animals were sacrificed at time 45 min. The saline control value represents 0% inhibition and the morphine value represents 100% inhibition. All test compounds had values between saline and morphine, and results are expressed as % inhibition compared to morphine.
The data were subjected to analysis of variance. Also the Scheffe test, a statistical test that allows for multiple comparison, was performed.

[3] = Gates and Montzka 1964; cited from earlier work

Compound	Percent Reversal (S.E.) Of Anti-Peristaltic Effects Of Morphine ([2]; 0.01 mg/kg s.c.)	Percent Reversal (S.E.) Of Anti-Peristaltic Effects Of Morphine ([2]; 0.10 mg/kg s.c.)	Percent Reversal (S.E.) Of Anti-Peristaltic Effects Of Morphine ([2]; 1.0 mg/kg s.c.)	Percent Reversal (S.E.) Of Anti-Peristaltic Effects Of Morphine ([2]; 10.0 mg/kg s.c.)	ED50 (writhing)	ED50 (morphine effect)	inhibition at 0.01 mg/kg (Peristalsis)	inhibition at 0.1 mg/kg (Peristalsis)	inhibition at 1 mg/kg (Peristalsis)	inhibition at 10 mg/kg (Peristalsis)	inhibition at 100 mg/kg (Peristalsis)	Percent Reversal (S.E.) Of Anti-Peristaltic Effects Of Morphine ([2]; 3.1 mg/kg s.c.)	Percent Reversal (S.E.) Of Anti-Peristaltic Effects Of Morphine ([2]; 31.0 mg/kg s.c.)	antagonist properties [2]	other results
C=CCN1CC[C@]23c4c5ccc(OC)c4O[C@H]2C(=O)CC[C@H]3[C@H]1C5 [7,8-dihydro-N-allylnorcodeinone, 17-allyl-4,5α-epoxy-3-methoxymorphinan-6-one]															analgesic properties [1]: weak analgesic properties
C=CCN1CC[C@]23c4c5ccc(O)c4O[C@H]2C(=O)CC[C@@]3(O)[C@H]1C5 [Naloxone]	14.5(±3.0) %	39.1(±4.2) %	69.8(±8.0) %	100.0(±5.9) %											
C[C@H]1CC(=O)[C@@H]2Oc3c(O)ccc4c3[C@@]23CCN(CC2CCC2)[C@H](C4)[C@H]13.Cl [TR-5088, 17-Cyclobutylmethyl-4,5α-epoxy-3-hydroxy-8β-methylmorphinan-6-one Hydrochloride]					0.67 mg/kg	1.9 mg/kg	13.5%	39.8%	50.7%	54%	63.5%	54.6(±6.7) %	44.7(±6.2) %	dramatically increased antagonist properties	analgesic activity (writhing; in words): especially effective analgesics; inhibition of peristalsis / constipating side effect (Peristalsis; Hydrochloride): inhibit peristalsis to a statistically significantly less degree than TR-5128; inhibition of peristalsis / constipating side effect (Peristalsis; listed as 17-cyclobutylmethyl-4,5α-epoxy-3-hydroxy-8β-methylmorphinan-6-one, Hydrochloride): less side effects; Percent Reversal (S.E.) Of Anti-Peristaltic Effects Of Morphine ([2]; 0.031 mg/kg s.c.): 12.4(±5.8) %; Percent Reversal (S.E.) Of Anti-Peristaltic Effects Of Morphine ([2]; 0.31 mg/kg s.c.): 27.7(±7.3) %
O=C1CC[C@H]2[C@H]3Cc4ccc(O)c5c4[C@@]2(CCN3CC2CC2)[C@H]1O5 [TR-5118, 17-cyclopropylmethyl-4,5α-epoxy-3-hydroxymorphinan-6-one]					1.34 mg/kg	0.19 mg/kg	24.7%	25.4%	40.8%	44.8%	47.1%	56.6(±8.0) %	69.3(±6.4) %	mixed agonist side effects and antagonist properties	inhibition of peristalsis / constipating side effect (Peristalsis): inhibit peristalsis to a statistically significantly less degree than TR-5128; narcotic antagonist activity [3]: had narcotic antagonist activity
O=C1CC[C@H]2[C@H]3Cc4ccc(O)c5c4[C@@]2(CCN3CC2CCC2)[C@H]1O5 [TR-5128, 17-Cyclobutylmethyl-4,5α-epoxy-3-hydroxymorphinan-6-one]	0.0%	8.3(±4.6) %	13.5(±7.3) %	19.1(±5.8) %	0.07 mg/kg	1.7 mg/kg	17.5%	35.6%	50.7%	76.3%	84.2%		20.4(±5.3) %	so low an antagonist ability as to be ineffective in the practical sense	
